Data as given in US11857544B2, “Composition or method including (t)ew-7197 for treating or preventing corneal endothelial diseases” (THE DOSHISHA, priority 2017, dated 2024).

Assays:
iFECD = test: Cell survival rate (Cell Titer-Glo Luminescent Cell Viability Assay); assay type: cell-based, human
Procedure: were seeded on a 96-well plate at a ratio of 3×10^3 cells per well, and cultured until reaching confluence at 37° C. (5% CO2). DMEM+10% FBS+1% P/S was used as the medium. After 24 hours, the medium was removed. SB431542 (WAKO, 192-16541) and EW-7197 (Selleck Chemicals, 57530) were added so that the final concentration would each be 0.01, 0.1, 1, or 10 μM, and the medium was cultured for 48 hours. DMEM+2% FBS+1% P/S was used as the medium. After 24 hours, the cell morphology was observed under a phase contrast microscope. After observation, the cell survival rate was analyzed using Cell Titer-Glo Luminescent Cell Viability Assay by the following procedures. The medium was discarded so that the amount would be 50 μl per well, and Cell Titer-Glo Luminescent Cell Viability Assay solution (Promega, G7572) was added at 50 μl/well so that the ratio to the medium would be 1:1. The process was hereinafter conducted without exposure to light. The mixture was mixed thoroughly using a shaker for 2 minutes at about 120 min^-1, and incubated for 10 minutes. After the incubation, 80 μl was transferred to an Assay plate (Corning, 3912, Assay plate 96 well, white polystyrene), and absorbance was measured using a GloMax-Multi Detection System (Promega, E7051).

type I collagen = test: Area of type I collagen expression by immunostaining, Col8a2 knock-in mice (Example 5); assay type: in vivo; details: 0.02% eye drop, 8 weeks
Procedure: 5 μL of 0.02% (about 0.5 mM) EW-7197 eye drop or a base agent (7% DMSO containing PBS) was administered as an eye drop to both eyes of 4-month-old alpha 2 collagen 8 gene (Col8a2) knock-in mice 4 times a day for 8 weeks. The corneal endothelial cell density was measured using a specular microscope KS3M (Konan Medical, Inc.) at before eye drops, and 2, 4, 6, and 8 weeks after eye drops. Mice were euthanized by intraperitoneally administering an excessive amount (200 mg/kg body weight or greater) of anesthetic injection Somnopentyl (Kyoritsu Seiyaku Corporation) 8 weeks after injection. After confirming cardiac arrest, both eye balls were harvested. The harvested eye balls were incised to prepare a corneal fragment. Immunostaining of type I collagen and fibronectin was performed as follows. Image-Pro (Nippon Roper K.K.) was used to analyze the area of type I collagen and fibronectin expression.
(§1) After immobilizing a mouse corneal fragment for 10 minutes at room temperature in 4% paraformaldehyde, 0.5% TritonX-100 was added and allowed to permeate for 5 minutes. 1% bovine serum albumin (BSA) was added and the fragment was incubated for 1 hour at room temperature. The corneal fragment was then immersed in a primary antibody solution and reacted overnight at 4° C. […]

fibronectin = test: Area of fibronectin expression by immunostaining, Col8a2 knock-in mice (Example 6); assay type: in vivo
Procedure: 5 μL of 0.02% (about 0.5 mM) EW-7197 eye drop, 0.1% (about 2.5 mM) EW-7197 eye drop, or a base agent (DMSO containing phosphate buffer) was administered as an eye drop to both eyes of 4-month-old alpha 2 collagen 8 gene (Col8a2) knock-in mice 4 times a day for 12 weeks. A surfactant was added to the base agent as needed. Those skilled in the art can use an appropriate and suitable surfactant (Kenji Motose (1984). “Tenganzai” [Eye drops] Nanzando; International Pharmaceutical Excipients Council Japan (2016). “Iyakuhin Tenkabutsu Jiten” [Pharmaceutical Excipient Encyclopedia] Yakuji Nippo, Limited). The corneal endothelial cell density was measured using a specular microscope KS3M (Konan Medical, Inc.) at before eye drops, and 3, 6, 9, and 12 weeks after eye drops. Mice were euthanized by intraperitoneally administering an excessive amount (200 mg/kg body weight or greater) of anesthetic injection Somnopentyl (Kyoritsu Seiyaku Corporation) 12 weeks after injection. After confirming cardiac arrest, both eye balls were harvested. The harvested eye balls were incised to prepare a corneal fragment. Immunostaining of fibronectin was performed. The immunostaining method was the following. Image-Pro (Nippon Roper K.K.) was used to analyze the area of fibronectin expression.
as §1, with “C. 1:250 diluent of fibronectin polyclonal antibody (abcam) was used as the primary antibody. Next, the corneal fragment was immersed in a mixture of a secondary antibody solution and DAPI solution (Dojindo Laboratories) and reacted for 1 hour at room temperature away from light. 1:2000 diluent of Alexa Fluor® 488-labeled goat anti-rabbit IgG (Life Technologies) was used as the secondary antibody. 1:1000 diluent of DAPI solution was used.” for “C.”

## Cc1cccc(-c2[nH]c(CNc3ccccc3F)nc2-c2ccc3ncnn3c2)n1 [EW-7197, N-((4-([1,2,4]triazolo[1,5-a]pyridin-6-yl)-5-(6-methylpyridin-2-yl)-1H-imidazol-2-yl)methyl)-2-fluoroaniline]
iFECD; iFECD, all concentrations of 0.01, 0.1, 1, and 10 μM, 48 hours
  cell survival rate compared to a control group: a significant difference was not found
iFECD; summary statement
  toxicity to cells in a cell survival rate test: hardly found
Type I collagen
  area of type I collagen expression compared to the base agent group: decreasing trend
fibronectin; 0.004% (0.1 mM) eye drop
  fibronectin expression: tendency of suppressing fibronectin expression
fibronectin; 0.02% eye drop, 12 weeks
  fibronectin expression: clear suppression of fibronectin expression
fibronectin; 0.1% eye drop, 12 weeks
  fibronectin expression: clear suppression of fibronectin expression
